Reference: patent US20250282799A1, “SUBSTITUTED PYRIDO[4,3-d]PYRIMIDINES AS KRAS MODULATORS” (Alterome Therapeutics, Inc., priority 2023, published 2025)

Tested on: KRAS G12V dependent lung adenocarcinoma cell line, NCI-H441
Assay: Cellular pERK (Thr202/Tyr204) FRET/HTRF assay
Type: cell-based
Settings: Homo sapiens, NCI-H441, cellular pERK (Thr202/Tyr204) HTRF, NCI-H441 cells
How it was run: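 NCI-H441 cells (KRAS G12V) plated overnight at 37 °C, then exposed to compounds for 1 hr at 37 °C, 5% CO2; DMSO as negative control. Lysates read by Eu-cryptate/d2 sandwich FRET (665 nm) for ERK1/2 phosphorylated at Thr202/Tyr204; IC50 from curve fit.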

IC50 | Compound
50 to 500 nM | [2H]C([2H])([2H])Oc1c(F)cc(F)c2cccc(-c3ncc4c(N5CCCC[C@H]6[C@H](F)[C@H]65)nc(OC([2H])([2H])[C@@]56CCCN5C[C@H](F)C6)nc4c3F)c12 [Example 140, 7-(5,7-difluoro-8-(methoxy-d3)naphthalen-1-yl)-8-fluoro-4-((1S,7R,8S)-8-fluoro-2-azabicyclo[5.1.0]octan-2-yl)-2-(((2R,7aS)-2-fluorotetrahydro-1H-pyrrolizin-7a(5H)-yl)methoxy-d2)pyrido[4,3-d]pyrimidine]
< 50 nM | [2H]C([2H])([2H])Oc1c(F)cc(F)c2cc(N)cc(-c3ncc4c(N5CCCC[C@H]6[C@H](F)[C@H]65)nc(OC([2H])([2H])[C@@]56CCCN5C[C@H](F)C6)nc4c3F)c12 [Example 141, 6,8-difluoro-4-(8-fluoro-4-((1S,7R,8S)-8-fluoro-2-azabicyclo[5.1.0]octan-2-yl)-2-(((2R,7aS)-2-fluorotetrahydro-1H-pyrrolizin-7a(5H)-yl)methoxy-d2)pyrido[4,3-d]pyrimidin-7-yl)-5-(methoxy-d3)naphthalen-2-amine]
< 50 nM | [2H]C([2H])([2H])Oc1c(F)c(F)c(F)c2cc(N)cc(-c3ncc4c(N5CCOC[C@H]6[C@H](F)[C@H]65)nc(OC[C@@]56CCCN5CC(=C(F)F)C6)nc4c3F)c12 [Example 142, 4-(2-(((S)-2-(difluoromethylene)tetrahydro-1H-pyrrolizin-7a(5H)-yl)methoxy)-8-fluoro-4-((1S,7S,8S)-8-fluoro-5-oxa-2-azabicyclo[5.1.0]octan-2-yl)pyrido[4,3-d]pyrimidin-7-yl)-6,7,8-trifluoro-5-(methoxy-d3)naphthalen-2-amine]
< 50 nM | C#Cc1c(F)ccc2cccc(-c3ncc4c(N5CCOC[C@H]6[C@H](F)[C@H]65)nc(OC[C@@]56CCCN5CC(=C)C6)nc4c3F)c12 [Example 143, (1S,7S,8S)-2-(7-(8-ethynyl-7-fluoronaphthalen-1-yl)-8-fluoro-2-(((S)-2-methylenetetrahydro-1H-pyrrolizin-7a(5H)-yl)methoxy)pyrido[4,3-d]pyrimidin-4-yl)-8-fluoro-5-oxa-2-azabicyclo[5.1.0]octane]
< 50 nM | [2H]C([2H])(F)Oc1c(F)c(F)cc2cc(N)cc(-c3ncc4c(N5CCOC[C@H]6[C@H](F)[C@H]65)nc(OC[C@@]56CCCN5CC(=C)C6)nc4c3F)c12 [Example 144, 6,7-difluoro-4-(8-fluoro-4-((1S,7S,8S)-8-fluoro-5-oxa-2-azabicyclo[5.1.0]octan-2-yl)-2-(((S)-2-methylenetetrahydro-1H-pyrrolizin-7a(5H)-yl)methoxy)pyrido[4,3-d]pyrimidin-7-yl)-5-(fluoromethoxy-d2)naphthalen-2-amine]
< 50 nM | [2H]C([2H])(F)Oc1c(F)ccc2cccc(-c3ncc4c(N5CCOC[C@H]6[C@H](F)[C@H]65)nc(OC[C@@]56CCCN5CC(=C)C6)nc4c3F)c12 [Example 145, (1S,7S,8S)-8-fluoro-2-(8-fluoro-7-(7-fluoro-8-(fluoromethoxy-d2)naphthalen-1-yl)-2-(((S)-2-methylenetetrahydro-1H-pyrrolizin-7a(5H)-yl)methoxy)pyrido[4,3-d]pyrimidin-4-yl)-5-oxa-2-azabicyclo[5.1.0]octane]
< 50 nM | [2H]C([2H])(F)Oc1c(F)ccc2cccc(-c3ncc4c(N5CCOC[C@H]6[C@H](F)[C@H]65)nc(OC[C@@]56CCCN5CC(=C(F)F)C6)nc4c3F)c12 [Example 146, (1S,7S,8S)-2-(2-(((S)-2-(difluoromethylene)tetrahydro-1H-pyrrolizin-7a(5H)-yl)methoxy)-8-fluoro-7-(7-fluoro-8-(fluoromethoxy-d2)naphthalen-1-yl)pyrido[4,3-d]pyrimidin-4-yl)-8-fluoro-5-oxa-2-azabicyclo[5.1.0]octane]
< 50 nM | [2H]C([2H])(Oc1nc(N2CCC=C[C@H]3[C@H](F)[C@H]32)c2cnc(-c3cccc4ccc(F)c(C#C)c34)c(F)c2n1)[C@@]12CCCN1C[C@H](F)C2 [Example 147, 7-(8-Ethynyl-7-fluoronaphthalen-1-yl)-8-fluoro-4-((1S,7R,8S)-8-fluoro-2-azabicyclo[5.1.0]oct-5-en-2-yl)-2-(((2R,7aS)-2-fluorotetrahydro-1H-pyrrolizin-7a(5H)-yl)methoxy-d2)pyrido[4,3-d]pyrimidine]
50 to 500 nM | [2H]C([2H])([2H])Oc1c(F)c(F)c(F)c2cc(N)cc(-c3ncc4c(N5CCC=C[C@H]6[C@H](F)[C@H]65)nc(OC([2H])([2H])[C@@]56CCCN5C[C@H](F)C6)nc4c3F)c12 [Example 148, 6,7,8-Trifluoro-4-(8-fluoro-4-((1S,7R,8S)-8-fluoro-2-azabicyclo[5.1.0]oct-5-en-2-yl)-2-(((2R,7aS)-2-fluorotetrahydro-1H-pyrrolizin-7a(5H)-yl)methoxy-d2)pyrido[4,3-d]pyrimidin-7-yl)-5-(methoxy-d3)naphthalen-2-amine]
< 50 nM | [2H]C([2H])([2H])Oc1c(F)cc(F)c2cc(N)cc(-c3ncc4c(N5CCC=C[C@H]6[C@H](F)[C@H]65)nc(OC([2H])([2H])[C@@]56CCCN5C[C@H](F)C6)nc4c3F)c12 [Example 149, 6,8-difluoro-4-(8-fluoro-4-((1S,7R,8S)-8-fluoro-2-azabicyclo[5.1.0]oct-5-en-2-yl)-2-(((2R,7aS)-2-fluorotetrahydro-1H-pyrrolizin-7a(5H)-yl)methoxy-d2)pyrido[4,3-d]pyrimidin-7-yl)-5-(methoxy-d3)naphthalen-2-amine]
< 50 nM | [2H]C([2H])(Oc1nc(N2CCC=C[C@H]3[C@H](F)[C@H]32)c2cnc(-c3cc(N)cc4ccc(F)c(C#C)c34)c(F)c2n1)[C@@]12CCCN1C[C@H](F)C2 [Example 150, 5-Ethynyl-6-fluoro-4-(8-fluoro-4-((1S,7R,8S)-8-fluoro-2-azabicyclo[5.1.0]oct-5-en-2-yl)-2-(((2R,7aS)-2-fluorotetrahydro-1H-pyrrolizin-7a(5H)-yl)methoxy-d2)pyrido[4,3-d]pyrimidin-7-yl)naphthalen-2-amine]
< 50 nM | [2H]C([2H])(F)Oc1c(F)cc(F)c2cccc(-c3ncc4c(N5CCOC[C@H]6[C@H](F)[C@H]65)nc(OC([2H])([2H])[C@@]56CCCN5C[C@H](F)C6)nc4c3F)c12 [Example 151, (1S,7S,8S)-2-(7-(5,7-difluoro-8-(fluoromethoxy-d2)naphthalen-1-yl)-8-fluoro-2-(((2R,7aS)-2-fluorotetrahydro-1H-pyrrolizin-7a(5H)-yl)methoxy-d2)pyrido[4,3-d]pyrimidin-4-yl)-8-fluoro-5-oxa-2-azabicyclo[5.1.0]octane]
50 to 500 nM | [2H]C([2H])(Oc1nc(N2CCOC[C@H]3[C@H](F)[C@H]32)c2cnc(-c3nc(N)cc4ccc(F)c(Cl)c34)c(F)c2n1)[C@@]12CCCN1C[C@H](F)C2 [Example 152, 8-chloro-7-fluoro-1-(8-fluoro-4-((1S,7S,8S)-8-fluoro-5-oxa-2-azabicyclo[5.1.0]octan-2-yl)-2-(((2R,7aS)-2-fluorotetrahydro-1H-pyrrolizin-7a(5H)-yl)methoxy-d2)pyrido[4,3-d]pyrimidin-7-yl)isoquinolin-3-amine]
